Measured values reported in US10100058B2, “Fused heterocyclic compounds as CaM kinase inhibitors” (Gilead Sciences, Inc., priority 2016, dated 2018).

Target: recombinant CaMKIIδ (Homo sapiens (Human), UniProt Q13557)
Assay: CaMKIIδ biochemical assay (HTRF)
Details: 10 pM CaMKIIδ, 110 nM calmodulin, 12 μM ATP, 1 hour; read-out: CAMKIID-HTRF-384V2 (IC50 - nM)
Description: CaMKIIδ Biochemical Assay
The biochemical activity of recombinant CaMKIIδ was measured by monitoring the phosphorylation of a target peptide using Homogenous Time Resolved Fluorescence (HTRF) technology from CisBio Bioassays.

In order of rising IC50:
1. CCN(CC)[C@@H](C)CNC(=O)c1ccnc(-c2cnn3ccc(-c4ccccc4)nc23)c1 [Example 38, (S)—N-(2-(diethylamino)propyl)-2-(5-phenylpyrazolo[1,5-a]pyrimidin-3-yl)isonicotinamide]  2.08 nM
2. CCCC(CNC(=O)c1ccnc(-c2cnn3ccc(-c4ccccc4)nc23)c1)N(CC)CC (stereo not drawn) [Example 60, N-(2-(diethylamino)pentyl)-2-(5-phenylpyrazolo[1,5-a]pyrimidin-3-yl)isonicotinamide]  2.35 nM
3. O=C(c1ccnc(-c2cnn3ccc(-c4cccs4)nc23)c1)N1CC2CCC[C@@H](C1)NC2 [Example 77, ((1S)-3,9-diazabicyclo[3.3.2]decan-3-yl)(2-(5-(thiophen-2-yl)pyrazolo[1,5-a]pyrimidin-3-yl)pyridin-4-yl)methanone]  2.7 nM
4. NC[C@H]1CCCN1C(=O)c1ccnc(-c2cnn3ccc(-c4cccs4)nc23)c1 [Example 79, (R)-(2-(aminomethyl)pyrrolidin-1-yl)(2-(5-(thiophen-2-yl)pyrazolo[1,5-a]pyrimidin-3-yl)pyridin-4-yl)methanone]  2.85 nM
5. O=C(c1ccnc(-c2cnn3ccc(-c4cccs4)nc23)c1)N1CC2CCC(C1)NC2 (stereo not drawn) [Example 76]  3.47 nM
6. CCN(CC)C(CNC(=O)c1ccnc(-c2cnn3ccc(-c4ccccc4)nc23)c1)C(C)C (stereo not drawn) [Example 61, N-(2-(diethylamino)-3-methylbutyl)-2-(5-phenylpyrazolo[1,5-a]pyrimidin-3-yl)isonicotinamide]  3.6 nM
7. CCCNC(CNC(=O)c1ccnc(-c2cnn3ccc(-c4ccccc4)nc23)c1)C(C)C (stereo not drawn) [Example 53, N-(3-methyl-2-(propylamino)butyl)-2-(5-phenylpyrazolo[1,5-a]pyrimidin-3-yl)isonicotinamide]  4.79 nM
8. CC(C)C(CNC(=O)c1ccnc(-c2cnn3ccc(-c4ccccc4)nc23)c1)NCC1CC1 (stereo not drawn) [Example 52, N-(2-((cyclopropylmethyl)amino)-3-methylbutyl)-2-(5-phenylpyrazolo[1,5-a]pyrimidin-3-yl)isonicotinamide]  4.98 nM
9. CCN[C@@H](CO)CNC(=O)c1ccnc(-c2cnn3ccc(-c4ccccc4)nc23)c1 [Example 59, (R)—N-(2-(ethylamino)-3-hydroxypropyl)-2-(5-phenylpyrazolo[1,5-a]pyrimidin-3-yl)isonicotinamide]  5.34 nM
10. O=C(c1ccnc(-c2cnn3ccc(-c4cccs4)nc23)c1)N1C2CCNCC1CC2 (stereo not drawn) [Example 82]  6.14 nM
11. CCN(CC)C(C)CNC(=O)c1ccnc(-c2cnn3ccc(-c4ccccc4)nc23)c1 (stereo not drawn) [Example 37, N-(2-(diethylamino)propyl)-2-(5-phenylpyrazolo[1,5-a]pyrimidin-3-yl)isonicotinamide]  7.03 nM
12. O=C(c1ccnc(-c2cnn3ccc(-c4cccs4)nc23)c1)N1CC2CNC(COC2)C1 (stereo not drawn) [Example 81]  7.33 nM
13. CCC(CNC(=O)c1ccnc(-c2cnn3ccc(-c4ccccc4)nc23)c1)NCC1CC1 (stereo not drawn) [Example 50, N-(2-((cyclopropylmethyl)amino)butyl)-2-(5-phenylpyrazolo[1,5-a]pyrimidin-3-yl)isonicotinamide]  8.52 nM
14. CCCNC(CC)CNC(=O)c1ccnc(-c2cnn3ccc(-c4ccccc4)nc23)c1 (stereo not drawn) [Example 51, 2-(5-phenylpyrazolo[1,5-a]pyrimidin-3-yl)-N-(2-(propylamino)butyl)isonicotinamide]  9.61 nM
15. CCNC(CNC(=O)c1ccnc(-c2cnn3ccc(-c4ccccc4)nc23)c1)C(C)C (stereo not drawn) [Example 55, N-(2-(ethylamino)-3-methylbutyl)-2-(5-phenylpyrazolo[1,5-a]pyrimidin-3-yl)isonicotinamide]  12 nM
16. CCN(CCN)C(=O)c1ccnc(-c2cnn3ccc(-c4ccccc4)nc23)c1 [Example 65, N-(2-aminoethyl)-N-ethyl-2-(5-phenylpyrazolo[1,5-a]pyrimidin-3-yl)isonicotinamide]  12.6 nM
17. CCNC(CC)CNC(=O)c1ccnc(-c2cnn3ccc(-c4ccccc4)nc23)c1 (stereo not drawn) [Example 54, N-(2-(ethylamino)butyl)-2-(5-phenylpyrazolo[1,5-a]pyrimidin-3-yl)isonicotinamide]  13.4 nM
18. CCN[C@@H](C)CNC(=O)c1ccnc(-c2cnn3ccc(-c4ccccc4)nc23)c1 [Example 42, (S)—N-(2-(ethylamino)propyl)-2-(5-phenylpyrazolo[1,5-a]pyrimidin-3-yl)isonicotinamide]  14.4 nM
19. C[C@@H]1CNCCN1C(=O)c1ccnc(-c2cnn3ccc(-c4cccs4)nc23)c1 [Example 84, (R)-(2-methylpiperazin-1-yl)(2-(5-(thiophen-2-yl)pyrazolo[1,5-a]pyrimidin-3-yl)pyridin-4-yl)methanone]  17.5 nM
20. N[C@H]1CCCN(C(=O)c2ccnc(-c3cnn4ccc(-c5cccs5)nc34)c2)C1 [Example 83, (S)-(3-aminopiperidin-1-yl)(2-(5-(thiophen-2-yl)pyrazolo[1,5-a]pyrimidin-3-yl)pyridin-4-yl)methanone]  18.8 nM
21. CCC(N)CNC(=O)c1ccnc(-c2cnn3ccc(-c4ccccc4)nc23)c1 (stereo not drawn) [Example 46, N-(2-aminobutyl)-2-(5-phenylpyrazolo[1,5-a]pyrimidin-3-yl)isonicotinamide]  23.7 nM
22. CCCC(N)CNC(=O)c1ccnc(-c2cnn3ccc(-c4ccccc4)nc23)c1 (stereo not drawn) [Example 48, N-(2-aminopentyl)-2-(5-phenylpyrazolo[1,5-a]pyrimidin-3-yl)isonicotinamide]  25.7 nM
23. O=C(c1ccnc(-c2cnn3ccc(-c4ccccc4)nc23)c1)N1CCCCC12CCCNC2 (stereo not drawn) [Example 68, (2-(5-phenylpyrazolo[1,5-a]pyrimidin-3-yl)pyridin-4-yl)(1,8-diazaspiro[5.5]undecan-1-yl)methanone]  26.3 nM
24. N[C@@H](CO)CNC(=O)c1ccnc(-c2cnn3ccc(-c4ccccc4)nc23)c1 [Example 57, (R)—N-(2-amino-3-hydroxypropyl)-2-(5-phenylpyrazolo[1,5-a]pyrimidin-3-yl)isonicotinamide]  26.5 nM
25. CC[C@]1(CNC(=O)c2ccnc(-c3cnn4ccc(-c5ccccc5)nc34)c2)CCCN1 [Example 43, (R)—N-((2-ethylpyrrolidin-2-yl)methyl)-2-(5-phenylpyrazolo[1,5-a]pyrimidin-3-yl)isonicotinamide]  27.7 nM
26. CCN(CC)[C@H](CNC(=O)c1ccnc(-c2cnn3ccc(-c4ccccc4)nc23)c1)COc1ncccn1 [Example 70, (R)—N-(2-(diethylamino)-3-(pyrimidin-2-yloxy)propyl)-2-(5-phenylpyrazolo[1,5-a]pyrimidin-3-yl)isonicotinamide]  30.1 nM
27. CC(C)NC(CNC(=O)c1ccnc(-c2cnn3ccc(-c4ccccc4)nc23)c1)C(C)C (stereo not drawn) [Example 73, N-(2-(isopropylamino)-3-methylbutyl)-2-(5-phenylpyrazolo[1,5-a]pyrimidin-3-yl)isonicotinamide]  31.9 nM
28. CCN[C@H](C)CNC(=O)c1ccnc(-c2cnn3ccc(-c4ccccc4)nc23)c1 [Example 74, (R)—N-(2-(ethylamino)propyl)-2-(5-phenylpyrazolo[1,5-a]pyrimidin-3-yl)isonicotinamide]  34.2 nM
29. CC(C)C(N)CNC(=O)c1ccnc(-c2cnn3ccc(-c4ccccc4)nc23)c1 (stereo not drawn) [Example 47, N-(2-amino-3-methylbutyl)-2-(5-phenylpyrazolo[1,5-a]pyrimidin-3-yl)isonicotinamide]  35.3 nM
30. CC[C@@]1(CNC(=O)c2ccnc(-c3cnn4ccc(-c5ccccc5)nc34)c2)CCCN1 [Example 75, (S)—N-((2-ethylpyrrolidin-2-yl)methyl)-2-(5-phenylpyrazolo[1,5-a]pyrimidin-3-yl)isonicotinamide]  39.3 nM
31. C[C@H](N)CNC(=O)c1ccnc(-c2cnn3ccc(-c4ccccc4)nc23)c1 [Example 44, (S)—N-(2-aminopropyl)-2-(5-phenylpyrazolo[1,5-a]pyrimidin-3-yl)isonicotinamide]  43.1 nM
32. CCC(C)N[C@@H](C)CNC(=O)c1ccnc(-c2cnn3ccc(-c4ccccc4)nc23)c1 (stereo partly drawn) [Example 45, N-((2S)-2-(sec-butylamino)propyl)-2-(5-phenylpyrazolo[1,5-a]pyrimidin-3-yl)isonicotinamide]  77.4 nM
33. CCN[C@H](CNC(=O)c1ccnc(-c2cnn3ccc(-c4ccccc4)nc23)c1)COc1ncccn1 [Example 69, (R)—N-(2-(ethylamino)-3-(pyrimidin-2-yloxy)propyl)-2-(5-phenylpyrazolo[1,5-a]pyrimidin-3-yl)isonicotinamide]  91.1 nM
34. CCNC(C)(C)CNC(=O)c1ccnc(-c2cnn3ccc(-c4ccccc4)nc23)c1 [Example 67, N-(2-(ethylamino)-2-methylpropyl)-2-(5-phenylpyrazolo[1,5-a]pyrimidin-3-yl)isonicotinamide]  102 nM
35. CC1(C)CNC1CNC(=O)c1ccnc(-c2cnn3ccc(-c4ccccc4)nc23)c1 (stereo not drawn) [Example 41, N-((3,3-dimethylazetidin-2-yl)methyl)-2-(5-phenylpyrazolo[1,5-a]pyrimidin-3-yl)isonicotinamide]  119 nM
36. CN(C)CCNC(=O)c1ccnc(-c2cnn3ccc(-c4ccccc4)nc23)c1 [Example 39, N-(2-(dimethylamino)ethyl)-2-(5-phenylpyrazolo[1,5-a]pyrimidin-3-yl)isonicotinamide]  137 nM
37. N[C@H](CNC(=O)c1ccnc(-c2cnn3ccc(-c4ccccc4)nc23)c1)COc1ncccn1 [Example 66, (R)—N-(2-amino-3-(pyrimidin-2-yloxy)propyl)-2-(5-phenylpyrazolo[1,5-a]pyrimidin-3-yl)isonicotinamide]  205 nM
38. CC(CN)NC(=O)c1ccnc(-c2cnn3ccc(-c4ccccc4)nc23)c1 (stereo not drawn) [Example 62, N-(1-aminopropan-2-yl)-2-(5-phenylpyrazolo[1,5-a]pyrimidin-3-yl)isonicotinamide]  216 nM
39. C[C@@H](CNC(=O)c1ccnc(-c2cnn3ccc(-c4ccccc4)nc23)c1)NCc1ncccn1 [Example 49, (S)-2-(5-phenylpyrazolo[1,5-a]pyrimidin-3-yl)-N-(2-((pyrimidin-2-ylmethyl)amino)propyl) isonicotinamide]  391 nM
